# Target: T1, human renin (Homo sapiens, UniProt P00797)
# T1 sequence (P00797 67-406): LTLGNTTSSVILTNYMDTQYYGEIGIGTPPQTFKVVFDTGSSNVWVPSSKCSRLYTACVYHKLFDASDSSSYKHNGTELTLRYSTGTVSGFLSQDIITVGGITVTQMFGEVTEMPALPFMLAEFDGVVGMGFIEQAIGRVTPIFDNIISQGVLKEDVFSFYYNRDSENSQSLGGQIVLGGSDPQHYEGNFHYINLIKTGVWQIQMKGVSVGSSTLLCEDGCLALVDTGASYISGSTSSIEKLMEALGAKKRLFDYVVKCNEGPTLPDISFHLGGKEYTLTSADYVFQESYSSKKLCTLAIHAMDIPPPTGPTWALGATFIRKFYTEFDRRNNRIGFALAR
# Assay: Inhibition of human renin activity (procedure of Kokubu et al.)
# Format: biochemical
# Conditions: sheep angiotensinogen, pH 7.3, 10 minutes at 37° C.; mean of 3 or 4 experiments
# Protocol: The ability of various compounds of the invention to inhibit the activity of renin was determined according to the following method, which follows essentially the procedure of Kokubu et al. [Hypertension, 5, 191-197 (1983)].
# Specifically, each test compound was dissolved in 60% v/v aqueous ethanol. Human renin activity in the presence and absence of each compound was measured using sheep angiotensinogen. The total volume of 1 ml of assay mixture contained 0.1 mole/liter phosphate buffer (pH 7.3), human renin (equivalent to 0.5 ng angiotensin I per ml per minute), sheep angiotensinogen (equivalent to 200 ng angiotensin I), […], 6% v/v ethanol and angiotensinase inhibitors (10 mmole/liter sodium ethylenediaminetetraacetate and 3.4 mmole/liter 8-hydroxyquinoline). The mixture was allowed to react for 10 minutes at 37° C., and then the reaction was stopped by placing the reaction tube in a boiling water bath for 5 minutes. The mixture was then centrifuged and the supernatant (0.05-0.1 ml) was used to assay remaining angiotensin I.
# An identical experiment was carried out, as a control, except that the test compound was omitted. From the values obtained were calculated the % inhibition of renin activity achieved by each test compound. The results are shown in the following Table 9, in which the compounds of the invention are identified by the numbers of the Examples given hereafter in which are described their preparation. The values given are the mean of 3 or 4 experiments.
smiles,measurement,value
"CC[C@H](C)CNC(=O)[C@@H](C[C@H](O)[C@H](CC1CCCCC1)NC(=O)[C@H](Cc1cscn1)NC(=O)[C@@H](CC(=O)N1CCOCC1)Cc1ccccc1)C(C)(C)O [Example 5, (2S, 4S, 5S)-5-{N-[2(R)-Benzyl-3-(morpholinocarbonyl)propionyl]-3-(4-thiazolyl)-L-alanyl}amino-6-cyclohexyl-4-hydroxy-2-(1-hydroxy-1-methylethyl)-N-[2 (S)-methylbutyl]hexanamide]",Inhibitory Activity (%) Against Human Renin,92.2%
"CC[C@H](C)CNC(=O)[C@@H](C[C@H](O)[C@H](CC1CCCCC1)NC(=O)[C@H](Cc1cscn1)NC(=O)[C@H](Cc1cccc2ccccc12)NC(=O)CN1CCOCC1)C(C)(C)O [Example 2, (2S, 4S, 5S)-5-{N-[N-Morpholinoacetyl-3-(1-naphthyl)-L-alanyl]-3-(4-thiazolyl)-L-alanyl}amino-6-cyclohexyl-4-hydroxy-2-(1-hydroxy-1-methylethyl)-N-[2(S)-methylbutyl]hexanamide]",Inhibitory Activity (%) Against Human Renin,96.3%
"CCC(C)CNC(=O)[C@@H](C[C@H](O)[C@H](CC(C)C)NC(=O)[C@H](Cc1cscn1)NC(=O)[C@@H](CC(=O)N(C)C1CCCCC1)Cc1cccc2ccccc12)C(C)(C)O (mixture of isomers) [Example 8, (2S, 4S, 5S)-5-{N-[2(R)-(1-Naphthylmethyl)-3-(N-cyclohexyl-N-methylaminocarbonyl)propionyl]-3-(4-thiazolyl)-L-alanyl}amino-4-hydroxy-2-(1-hydroxy-1-methylethyl)-7-methyl-N-[2-(RS)-methylbutyl]octanamide]",Inhibitory Activity (%) Against Human Renin,97.4%
"CC[C@H](C)CNC(=O)[C@@H](C[C@H](O)[C@H](CC1CCCCC1)NC(=O)[C@H](Cc1cscn1)NC(=O)[C@@H](CC(=O)N1CCOCC1)Cc1cccc2ccccc12)C(C)(C)O [Example 4, (2S, 4S, 5S)-5-{N-[2(R)-(1-Naphthylmethyl)-3-(morpholinocarbonyl)propionyl]-3-(4-thiazolyl)-L-alanyl}amino-6-cyclohexyl-4-hydroxy-2-(1-hydroxy-1-methylethyl)-N-[2(S)-methylbutyl]hexanamide]",Inhibitory Activity (%) Against Human Renin,96.8%
"CCC(C)CNC(=O)[C@@H](C[C@H](O)[C@H](CC(C)C)NC(=O)[C@H](Cc1cscn1)NC(=O)[C@H](Cc1cccc2ccccc12)NC(=O)OC(C)(C)C)C(C)(C)O (mixture of isomers) [Example 7, (2S, 4S, 5S)-5-{N-[N-(t-Butoxycarbonyl)-3-(1-naphthyl)-L-alanyl]-3-(4-thiazolyl)-L-alanyl}amino-4-hydroxy-2-(1-hydroxy-1-methylethyl)-7-methyl-N-[2(RS)-methylbutyl]octanamide]",Inhibitory Activity (%) Against Human Renin,98.2%
"CC[C@H](C)CNC(=O)[C@@H](C[C@H](O)[C@H](CC1CCCCC1)NC(=O)[C@H](Cc1cscn1)NC(=O)[C@H](Cc1ccccc1)NC(=O)CN1CCOCC1)C(C)(C)O [Example 3, (2S, 4S, 5S)-S-{N-[N-Morpholinoacetyl-L-phenylalanyl]-3-(4-thiazolyl)-L-alanyl}amino-6-cyclohexyl-4-hydroxy-2-(1-hydroxy-1-methylethyl)-N-[2(S)-methylbutyl]hexanamide]",Inhibitory Activity (%) Against Human Renin,96.7%
CNC(=O)[C@@H](C[C@H](O)[C@H](CC1CCCCC1)NC(=O)[C@H](Cc1cscn1)NC(=O)[C@@H](CC(=O)N1CCOCC1)Cc1ccccc1)C(C)(C)O [Example 9],Inhibitory Activity (%) Against Human Renin,90.9%
